# Source: patent publication US20250382305A1 (PTC THERAPEUTICS, INC., priority 2022, published 2025)
# Legend:
# [1] = system: ATXN3 pre-mRNA; experiment: RT-qPCR Assay to Quantify Exon 4 Skipping in ATXN3 pre-mRNA in Cells; format: cell-based; conditions: percent exon 4 skipping in ATXN3 pre-mRNA, RT-qPCR of cell lysates; average IC50
# Procedure, shortened: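 Cells plated at 10,000/well onto a 7-point, 3.16-fold DMSO dilution series (duplicates), incubated 24 h at 37 °C, then lysed. Exon 4 skipping measured by one-step RT-qPCR (48 °C RT, 40 cycles); IC50 interpolated from dose-response fit of percent skipping.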
# [2] = system: Total ATXN3 (tATXN3) protein; experiment: Endogenous Total ATXN3 (tATXN3) Protein Assay (MSD immunoassay of cell lysates); format: cell-based; conditions: average IC50, total ATXN3 protein in cell lysate after 48 h with compound (Table 1)
# Procedure, shortened: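 Cells in DMEM/10% FBS were plated at 10,000 per well onto 7-point, 3.16-fold compound dilutions in duplicate for 48 h at 37° C, then lysed. Total ATXN3 in lysates was measured by MSD sandwich immunoassay: mouse anti-ATXN3 capture, rabbit anti-ATXN3 detection, SULFO-TAG anti-rabbit. Average IC50 was reported in star bins.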
Compound,IC50 [1],IC50 [2]
"Cc1c([C@@H]2CCC[C@H]2N)sc2c(NCc3ccccc3)cc(Cl)nc12 [Compound 160, 2-((1R,2R)-2-aminocyclopentyl)-N-benzyl-5-chloro-3-methylthieno[3,2-b]pyridin-7-amine]",> 1000 nM,> 1000 nM
"N[C@@H]1CCC[C@H]1c1sc2c(NCc3cccs3)cc(Cl)nc2c1Cl [Compound 2, 2-((1R,2R)-2-aminocyclopentyl)-3,5-dichloro-N-(thiophen-2-ylmethyl)thieno[3,2-b]pyridin-7-amine]",> 1000 nM,> 1000 nM
"CC#Cc1c([C@@H]2CCCC[C@H]2N)n(C(F)F)c2c(NCc3ccco3)nc(Cl)nc12 [Compound 318, 6-((1R,2R)-2-aminocyclohexyl)-2-chloro-5-(difluoromethyl)-N-(furan-2-ylmethyl)-7-(prop-1-yn-1-yl)-5H-pyrrolo[3,2-d]pyrimidin-4-amine]",30 to 300 nM,30 to 300 nM
"5-(5-chloro-2-((2R,3R)-3-(methylamino)tetrahydro-2H-pyran-2-yl)-7-((thiophen-2-ylmethyl)amino)thieno[3,2-b]pyridin-3-yl)pent-4-yn-1-ol and 5-(5-chloro-2-((2S,3S)-3-(methylamino)tetrahydro-2H-pyran-2-yl)-7-((thiophen-2-ylmethyl)amino)thieno[3,2-b]pyridin-3-yl)pent-4-yn-1-ol [Compound 309]",30 to 300 nM,30 to 300 nM
"NC1CCCOC1c1sc2c(NCc3ccccc3F)cc(Cl)nc2c1Cl (mixture of isomers) [Compound 24, 2-((2R,3R)-3-aminotetrahydro-2H-pyran-2-yl)-3,5-dichloro-N-(2-fluorobenzyl)thieno[3,2-b]pyridin-7-amine and 2-((2S,3S)-3-aminotetrahydro-2H-pyran-2-yl)-3,5-dichloro-N-(2-fluorobenzyl)thieno[3,2-b]pyridin-7-amine]",30 to 300 nM,30 to 300 nM
"N[C@H]1CC=CC[C@@H]1c1sc2c(NCc3cccs3)cc(Cl)nc2c1C#CCCCCCO [Compound 320, 7-(2-((1S,6S)-6-aminocyclohex-3-en-1-yl)-5-chloro-7-((thiophen-2-ylmethyl)amino)thieno[3,2-b]pyridin-3-yl)hept-6-yn-1-ol]",30 to 300 nM,30 to 300 nM
"N[C@@H]1CC=CC[C@H]1c1sc2c(NCc3cccs3)nc(Cl)nc2c1I [Compound 362, 6-((1R,6R)-6-aminocyclohex-3-en-1-yl)-2-chloro-7-iodo-N-(thiophen-2-ylmethyl)thieno[3,2-d]pyrimidin-4-amine]",30 to 300 nM,30 to 300 nM
"6-((2S,3S)-3-aminotetrahydro-2H-pyran-2-yl)-N-benzyl-2,7-dichloro-5-(difluoromethyl)-5H-pyrrolo[3,2-d]pyrimidin-4-amine and 6-((2R,3R)-3-aminotetrahydro-2H-pyran-2-yl)-N-benzyl-2,7-dichloro-5-(difluoromethyl)-5H-pyrrolo[3,2-d]pyrimidin-4-amine [Compound 392]",30 to 300 nM,300 to 1000 nM
"Cc1c([C@H]2CCCC[C@H]2N)sc2c(NCc3cccs3)cc(Cl)nc12 [Compound 51, 2-((1S,2R)-2-aminocyclohexyl)-5-chloro-3-methyl-N-(thiophen-2-ylmethyl)thieno[3,2-b]pyridin-7-amine]",> 1000 nM,> 1000 nM
"N[C@@H]1CCCCC[C@@H]1c1sc2c(NCc3cccs3)cc(Cl)nc2c1Cl [Compound 76, 2-((1S,2R)-2-aminocycloheptyl)-3,5-dichloro-N-(thiophen-2-ylmethyl)thieno[3,2-b]pyridin-7-amine]",> 1000 nM,> 1000 nM
"N[C@H]1CCCCC[C@H]1c1sc2c(NCc3cccs3)cc(Cl)nc2c1Cl [Compound 77, 2-((1R,2S)-2-aminocycloheptyl)-3,5-dichloro-N-(thiophen-2-ylmethyl)thieno[3,2-b]pyridin-7-amine]",300 to 1000 nM,> 1000 nM

# The remaining lines, values ahead:
IC50 [1],IC50 [2],Compound
≤ 30 nM,≤ 30 nM,"(1R,5S,6R)-6-amino-5-(3-bromo-5-chloro-7-((thiophen-2-ylmethyl)amino)thieno[3,2-b]pyridin-2-yl)cyclohex-2-en-1-ol and (1S,5R,6S)-6-amino-5-(3-bromo-5-chloro-7-((thiophen-2-ylmethyl)amino)thieno[3,2-b]pyridin-2-yl)cyclohex-2-en-1-ol [Compound 153]"
30 to 300 nM,30 to 300 nM,"N[C@H]1CCCCC[C@@H]1c1sc2c(NCc3cccs3)cc(Cl)nc2c1Cl [Compound 79, 2-((1S,2S)-2-aminocycloheptyl)-3,5-dichloro-N-(thiophen-2-ylmethyl)thieno[3,2-b]pyridin-7-amine]"
≤ 30 nM,30 to 300 nM,"Cc1c([C@@H]2CC=CC[C@H]2N)sc2c(NCc3ccncc3F)nc(Cl)nc12 [Compound 435, 6-((1R,6R)-6-aminocyclohex-3-en-1-yl)-2-chloro-N-((3-fluoropyridin-4-yl)methyl)-7-methylthieno[3,2-d]pyrimidin-4-amine]"
30 to 300 nM,30 to 300 nM,"CC#CCNc1cc(Cl)nc2c(Cl)c([C@H]3CC=CC[C@@H]3N)sc12 [Compound 250, 2-((1S,6S)-6-aminocyclohex-3-en-1-yl)-N-(but-2-yn-1-yl)-3,5-dichlorothieno[3,2-b]pyridin-7-amine]"
≤ 30 nM,≤ 30 nM,"Cc1c([C@H]2CC=C(C(=O)O)C[C@@H]2N)sc2c(NCc3cccs3)cc(Cl)nc12 [Compound 446, (4S,5S)-5-amino-4-(5-chloro-3-methyl-7-((thiophen-2-ylmethyl)amino)thieno[3,2-b]pyridin-2-yl)cyclohex-1-ene-1-carboxylic acid]"
≤ 30 nM,≤ 30 nM,"N[C@H]1CCCC[C@@H]1c1sc2c(NCc3ccco3)nc(Cl)nc2c1Br [Compound 68, 6-((1S,2S)-2-aminocyclohexyl)-7-bromo-2-chloro-N-(furan-2-ylmethyl)thieno[3,2-d]pyrimidin-4-amine]"
≤ 30 nM,≤ 30 nM,"Cc1c([C@@H]2OCCC[C@H]2N)sc2c(NCc3cccs3)cc(Cl)nc12 (single isomer, unassigned) [Compound 45, 2-((2R,3R)-3-aminotetrahydro-2H-pyran-2-yl)-5-chloro-3-methyl-N-(thiophen-2-ylmethyl)thieno[3,2-b]pyridin-7-amine or 2-((2S,3S)-3-aminotetrahydro-2H-pyran-2-yl)-5-chloro-3-methyl-N-(thiophen-2-ylmethyl)thieno[3,2-b]pyridin-7-amine]"
≤ 30 nM,≤ 30 nM,"N[C@H]1CCCO[C@@H]1c1sc2c(NCc3ccco3)nc(Cl)nc2c1Br [Compound 143, 6-((2S,3S)-3-aminotetrahydro-2H-pyran-2-yl)-7-bromo-2-chloro-N-(furan-2-ylmethyl)thieno[3,2-d]pyrimidin-4-amine]"
< 30 nM,≤ 30 nM,"N[C@H]1CC=CC[C@@H]1c1sc2c(NCc3ccco3)nc(Cl)nc2c1Cl [Compound 170, 6-((1S,6S)-6-aminocyclohex-3-en-1-yl)-2,7-dichloro-N-(furan-2-ylmethyl)thieno[3,2-d]pyrimidin-4-amine]"
≤ 30 nM,≤ 30 nM,"N[C@H]1CC=CC[C@@H]1c1sc2c(NCc3ccco3)nc(Cl)nc2c1I [Compound 172, 6-((1S,6S)-6-aminocyclohex-3-en-1-yl)-2-chloro-N-(furan-2-ylmethyl)-7-iodothieno[3,2-d]pyrimidin-4-amine]"
